# Measured values published in patent US10550142B2, “Quercetin-based compound” (AMOREPACIFIC CORPORATION, priority 2016, dated 2020).
# System: skin
# Assay: Cumulative skin irritation test, HRIPT (human repeated insult patch test)
# Assay type: in vivo
# Design: key to skin reactivity (ICDRG criteria): −: Negative (no reaction); ±: Suspicious or slight erythema, etc.; +: Weak reaction (not accompanied by vesicles), erythema, papules; ++: Severe reaction (accompanied by vesicles), erythema, papules, vesicles; +++: Strong reaction, bullae
# Conditions: for Number of subjects showing ±, + or ++ reactivity 1st: 1st patch; for Number of subjects showing ±, + or ++ reactivity 2nd: 2nd patch; for Number of subjects showing ±, + or ++ reactivity 3rd: 3rd patch; for Number of subjects showing ±, + or ++ reactivity 4th: 4th patch; for Number of subjects showing ±, + or ++ reactivity 5th: 5th patch; for Number of subjects showing ±, + or ++ reactivity 6th: 6th patch; for Number of subjects showing ±, + or ++ reactivity 7th: 7th patch; for Number of subjects showing ±, + or ++ reactivity 8th: 8th patch; for Number of subjects showing ±, + or ++ reactivity 9th: 9th patch; for Average reactivity: less than 3 = safe
# Procedure: HRIPT (human repeated insult patch test) was performed to evaluate the cumulative skin irritation of quercetin 3-O-[3-O″-(E)-p-coumaroyl][β-D-glucopyranosyl-(1→3)-O-α-L-rhamnopyranosyl-(1→6)-O-β-D-glucopyranoside] and quercetin 3-O-[3-O″-(E)-p-coumaroyl][α-L-rhamnopyranosyl-(1→6)-O-β-D-glucopyranoside] and determine the range of concentration applicable to the skin. Specifically, 15 healthy adult subjects were randomly selected, and 20 μl of a test composition (composition for the skin including an emulsifier, a stabilizer, purified water, etc. in addition to each of the above compounds) containing 0.5% by weight, 1% by weight or 3% by weight of each of the compounds was dropped into each chamber (IQ chamber, Epitest Ltd, Finland) The patch was applied to the upper right side of the back of the subject, and after 24 hours from the application, it was replaced with a new patch. In this way, a total of 9 patches were applied, 3 times a week for 3 weeks. The skin reaction was checked before and after application of each patch. The skin reaction was checked until after 48 hours from the removal of the final patch, and the average reactivity was calculated. The skin reaction was evaluated according to the criteria of the International Contact Dermatitis Research Group (ICDRG). In the above table, “novel substance 31” denotes quercetin 3-O-[3-O″-(E)-p-coumaroyl][β-D-glucopyranosyl-(1→3)-O-α-L-rhamnopyranosyl-(1→6)-O-β-D-glucopyranoside], and “novel substance 32” denotes quercetin 3-O-[3-O″-(E)-p-coumaroyl][α-L-rhamnopyranosyl-(1→6)-O-β-D-glucopyranoside.
# [1] = 0.5% by weight, line 1 of 3 (±)
# [2] = 0.5% by weight, line 2 of 3 (+)
# [3] = 0.5% by weight, line 3 of 3 (++)
structure (smiles),measurement,setting,value
"CC1OC(OCC2OC(Oc3c(-c4ccc(O)c(O)c4)oc4cc(O)cc(O)c4c3=O)C(O)C(OC(=O)/C=C/c3ccc(O)cc3)C2O)C(O)C(O)C1O [Novel substance 32, quercetin 3-O-[3-O″-(E)-p-coumaroyl][α-L-rhamnopyranosyl-(1→6)-O-β-D-glucopyranoside]]","Number of subjects showing ±, + or ++ reactivity 1st",[1],0 number of persons
same,"Number of subjects showing ±, + or ++ reactivity 1st",[2],0 number of persons
same,"Number of subjects showing ±, + or ++ reactivity 1st",[3],0 number of persons
same,"Number of subjects showing ±, + or ++ reactivity 2nd",[1],0 number of persons
same,"Number of subjects showing ±, + or ++ reactivity 2nd",[2],0 number of persons
same,"Number of subjects showing ±, + or ++ reactivity 2nd",[3],0 number of persons
same,"Number of subjects showing ±, + or ++ reactivity 3rd",[1],0 number of persons
same,"Number of subjects showing ±, + or ++ reactivity 3rd",[2],0 number of persons
same,"Number of subjects showing ±, + or ++ reactivity 3rd",[3],0 number of persons
same,"Number of subjects showing ±, + or ++ reactivity 4th",[1],0 number of persons
same,"Number of subjects showing ±, + or ++ reactivity 4th",[2],0 number of persons
same,"Number of subjects showing ±, + or ++ reactivity 4th",[3],0 number of persons
same,"Number of subjects showing ±, + or ++ reactivity 5th",[1],0 number of persons
same,"Number of subjects showing ±, + or ++ reactivity 5th",[2],0 number of persons
same,"Number of subjects showing ±, + or ++ reactivity 5th",[3],0 number of persons
same,"Number of subjects showing ±, + or ++ reactivity 6th",[1],0 number of persons
same,"Number of subjects showing ±, + or ++ reactivity 6th",[2],0 number of persons
same,"Number of subjects showing ±, + or ++ reactivity 6th",[3],0 number of persons
same,"Number of subjects showing ±, + or ++ reactivity 7th",[1],0 number of persons
same,"Number of subjects showing ±, + or ++ reactivity 7th",[2],0 number of persons
same,"Number of subjects showing ±, + or ++ reactivity 7th",[3],0 number of persons
same,"Number of subjects showing ±, + or ++ reactivity 8th",[1],0 number of persons
same,"Number of subjects showing ±, + or ++ reactivity 8th",[2],0 number of persons
same,"Number of subjects showing ±, + or ++ reactivity 8th",[3],0 number of persons
same,"Number of subjects showing ±, + or ++ reactivity 9th",[1],0 number of persons
same,"Number of subjects showing ±, + or ++ reactivity 9th",[2],0 number of persons
same,"Number of subjects showing ±, + or ++ reactivity 9th",[3],0 number of persons
same,Average reactivity,0.5% by weight,0
same,"Number of subjects showing ±, + or ++ reactivity 1st","1% by weight, line 1 of 3 (±)",0 number of persons
same,"Number of subjects showing ±, + or ++ reactivity 1st","1% by weight, line 2 of 3 (+)",0 number of persons
same,"Number of subjects showing ±, + or ++ reactivity 1st","1% by weight, line 3 of 3 (++)",0 number of persons
same,"Number of subjects showing ±, + or ++ reactivity 2nd","1% by weight, line 1 of 3 (±)",0 number of persons
same,"Number of subjects showing ±, + or ++ reactivity 2nd","1% by weight, line 2 of 3 (+)",0 number of persons
same,"Number of subjects showing ±, + or ++ reactivity 2nd","1% by weight, line 3 of 3 (++)",0 number of persons
same,"Number of subjects showing ±, + or ++ reactivity 3rd","1% by weight, line 1 of 3 (±)",0 number of persons
same,"Number of subjects showing ±, + or ++ reactivity 3rd","1% by weight, line 2 of 3 (+)",0 number of persons
same,"Number of subjects showing ±, + or ++ reactivity 3rd","1% by weight, line 3 of 3 (++)",0 number of persons
same,"Number of subjects showing ±, + or ++ reactivity 4th","1% by weight, line 1 of 3 (±)",0 number of persons
same,"Number of subjects showing ±, + or ++ reactivity 4th","1% by weight, line 2 of 3 (+)",0 number of persons
same,"Number of subjects showing ±, + or ++ reactivity 4th","1% by weight, line 3 of 3 (++)",0 number of persons
same,"Number of subjects showing ±, + or ++ reactivity 5th","1% by weight, line 1 of 3 (±)",0 number of persons
same,"Number of subjects showing ±, + or ++ reactivity 5th","1% by weight, line 2 of 3 (+)",0 number of persons
same,"Number of subjects showing ±, + or ++ reactivity 5th","1% by weight, line 3 of 3 (++)",0 number of persons
same,"Number of subjects showing ±, + or ++ reactivity 6th","1% by weight, line 1 of 3 (±)",0 number of persons
same,"Number of subjects showing ±, + or ++ reactivity 6th","1% by weight, line 2 of 3 (+)",0 number of persons
same,"Number of subjects showing ±, + or ++ reactivity 6th","1% by weight, line 3 of 3 (++)",0 number of persons
same,"Number of subjects showing ±, + or ++ reactivity 7th","1% by weight, line 1 of 3 (±)",0 number of persons
same,"Number of subjects showing ±, + or ++ reactivity 7th","1% by weight, line 2 of 3 (+)",0 number of persons
same,"Number of subjects showing ±, + or ++ reactivity 7th","1% by weight, line 3 of 3 (++)",0 number of persons
same,"Number of subjects showing ±, + or ++ reactivity 8th","1% by weight, line 1 of 3 (±)",0 number of persons
same,"Number of subjects showing ±, + or ++ reactivity 8th","1% by weight, line 2 of 3 (+)",0 number of persons
same,"Number of subjects showing ±, + or ++ reactivity 8th","1% by weight, line 3 of 3 (++)",0 number of persons
same,"Number of subjects showing ±, + or ++ reactivity 9th","1% by weight, line 1 of 3 (±)",0 number of persons
same,"Number of subjects showing ±, + or ++ reactivity 9th","1% by weight, line 2 of 3 (+)",0 number of persons
same,"Number of subjects showing ±, + or ++ reactivity 9th","1% by weight, line 3 of 3 (++)",0 number of persons
same,Average reactivity,1% by weight,0
same,"Number of subjects showing ±, + or ++ reactivity 1st","3% by weight, line 1 of 3 (±)",0 number of persons
same,"Number of subjects showing ±, + or ++ reactivity 1st","3% by weight, line 2 of 3 (+)",0 number of persons
same,"Number of subjects showing ±, + or ++ reactivity 1st","3% by weight, line 3 of 3 (++)",0 number of persons
same,"Number of subjects showing ±, + or ++ reactivity 2nd","3% by weight, line 1 of 3 (±)",0 number of persons
same,"Number of subjects showing ±, + or ++ reactivity 2nd","3% by weight, line 2 of 3 (+)",0 number of persons
same,"Number of subjects showing ±, + or ++ reactivity 2nd","3% by weight, line 3 of 3 (++)",0 number of persons
same,"Number of subjects showing ±, + or ++ reactivity 3rd","3% by weight, line 1 of 3 (±)",0 number of persons
same,"Number of subjects showing ±, + or ++ reactivity 3rd","3% by weight, line 2 of 3 (+)",0 number of persons
same,"Number of subjects showing ±, + or ++ reactivity 3rd","3% by weight, line 3 of 3 (++)",0 number of persons
same,"Number of subjects showing ±, + or ++ reactivity 4th","3% by weight, line 1 of 3 (±)",0 number of persons
same,"Number of subjects showing ±, + or ++ reactivity 4th","3% by weight, line 2 of 3 (+)",0 number of persons
same,"Number of subjects showing ±, + or ++ reactivity 4th","3% by weight, line 3 of 3 (++)",0 number of persons
same,"Number of subjects showing ±, + or ++ reactivity 5th","3% by weight, line 1 of 3 (±)",0 number of persons
same,"Number of subjects showing ±, + or ++ reactivity 5th","3% by weight, line 2 of 3 (+)",0 number of persons
same,"Number of subjects showing ±, + or ++ reactivity 5th","3% by weight, line 3 of 3 (++)",0 number of persons
same,"Number of subjects showing ±, + or ++ reactivity 6th","3% by weight, line 1 of 3 (±)",0 number of persons
same,"Number of subjects showing ±, + or ++ reactivity 6th","3% by weight, line 2 of 3 (+)",0 number of persons
same,"Number of subjects showing ±, + or ++ reactivity 6th","3% by weight, line 3 of 3 (++)",0 number of persons
same,"Number of subjects showing ±, + or ++ reactivity 7th","3% by weight, line 1 of 3 (±)",0 number of persons
same,"Number of subjects showing ±, + or ++ reactivity 7th","3% by weight, line 2 of 3 (+)",0 number of persons
same,"Number of subjects showing ±, + or ++ reactivity 7th","3% by weight, line 3 of 3 (++)",0 number of persons
same,"Number of subjects showing ±, + or ++ reactivity 8th","3% by weight, line 1 of 3 (±)",0 number of persons
same,"Number of subjects showing ±, + or ++ reactivity 8th","3% by weight, line 2 of 3 (+)",0 number of persons
same,"Number of subjects showing ±, + or ++ reactivity 8th","3% by weight, line 3 of 3 (++)",0 number of persons
same,"Number of subjects showing ±, + or ++ reactivity 9th","3% by weight, line 1 of 3 (±)",0 number of persons
same,"Number of subjects showing ±, + or ++ reactivity 9th","3% by weight, line 2 of 3 (+)",0 number of persons
same,"Number of subjects showing ±, + or ++ reactivity 9th","3% by weight, line 3 of 3 (++)",0 number of persons
same,Average reactivity,3% by weight,0
same,skin reactivity (ICDRG criteria),"within the content range 0.5, 1, 3% by weight, 9 patches, 15 subjects",−
